Measurements published in paper doi:10.1101/2024.08.25.609621 (bioRxiv, 2024).
Read-outs that look alike come from different tables or passages of the source.

Molecular target: SARS-CoV-2 NSP3 macrodomain (Mac1), P43 crystal form (Severe acute respiratory syndrome coronavirus 2, UniProt P0DTD1)
Assay type: binding
Details: for 1-BDC: PanDDA background density correction; for Pandda run, overall: Hit / Pandda run, overall: Modeled / PanDDA run, DMSO background map: 1-BDC / PanDDA run, DMSO background map: Hit / Pandda run, overall: Modeling comment / PanDDA run, TFA/DMSO background map: 1-BDC / PanDDA run, TFA/DMSO background map: Hit: crystal soak 10 mM; for Pandda run, overall: Hit / Pandda run, overall: Modeled / Pandda run, overall: Modeling comment: P43 crystals; for Total number of conformations: ligand conformations modeled in Mac1 crystal structure; for X-ray crystallography: Binding site: site where the ligand is bound in the X-ray crystal structure
[1] = occupancy estimate from PanDDA 1-BDC
[2] = X-ray crystal structure determined (TRUE)
[3] = site of ligand in X-ray crystal structure

OC1CCCN(c2ncnc3[nH]ccc23)C1 (stereo not drawn) [AVI-3646]
1-BDC: 0.22
Pandda run, overall: Hit: TRUE
Pandda run, overall: Modeled: TRUE
PanDDA run, DMSO background map: 1-BDC: 0.22
PanDDA run, DMSO background map: Hit: TRUE
X-ray crystal structure (crystal structure with Mac1 determined (TRUE)): TRUE
Total number of conformations: 1
2*(1-BDC) (%) [1]: 44%
Binding site (site of ligand in Mac1 crystal structure): Adenosine

CC(C)(C)CC(CO)Nc1ncnc2[nH]ccc12 (stereo not drawn) [AVI-3648]
1-BDC: 0.13
X-ray crystal structure [2]: TRUE
Pandda run, overall: Hit: TRUE
Pandda run, overall: Modeled: TRUE
PanDDA run, DMSO background map: 1-BDC: 0.13
PanDDA run, DMSO background map: Hit: TRUE
Total number of conformations: 1
2*(1-BDC) (%) [1]: 26%
Binding site [3]: Adenosine

OCC(Nc1ncnc2[nH]ccc12)C1CCCC1 (stereo not drawn) [AVI-3649]
1-BDC: 0.16
X-ray crystal structure [2]: TRUE
Pandda run, overall: Hit: TRUE
Pandda run, overall: Modeled: TRUE
PanDDA run, DMSO background map: 1-BDC: 0.16
PanDDA run, DMSO background map: Hit: TRUE
Total number of conformations: 1
2*(1-BDC) (%) [1]: 32%
Binding site [3]: Adenosine

OCC(Cc1c[nH]c2ccccc12)Nc1ncnc2[nH]ccc12 (stereo not drawn) [AVI-3650]
1-BDC: 0.15
X-ray crystal structure [2]: TRUE
Pandda run, overall: Hit: TRUE
Pandda run, overall: Modeled: TRUE
PanDDA run, DMSO background map: 1-BDC: 0.15
PanDDA run, DMSO background map: Hit: TRUE
Total number of conformations: 2
2*(1-BDC) (%) [1]: 30%
Binding site [3]: Adenosine

OC(c1ccccc1)C1CCCN1c1ncnc2[nH]ccc12 (stereo not drawn) [AVI-3652]
1-BDC: 0.22
Pandda run, overall: Hit: TRUE
Pandda run, overall: Modeled: TRUE
PanDDA run, DMSO background map: 1-BDC: 0.22
PanDDA run, DMSO background map: Hit: TRUE
Total number of conformations: 1
2*(1-BDC) (%) [1]: 44%
X-ray crystallography: Binding site: Adenosine

O=C(O)C(F)(F)F.OC[C@@H](CCc1ccccc1)Nc1ncnc2[nH]ccc12 [AVI-3654]
Pandda run, overall: Hit: TRUE
Pandda run, overall: Modeling comment: Weak density for phenyl, not modeled
PanDDA run, DMSO background map: 1-BDC: 0.14
PanDDA run, DMSO background map: Hit: TRUE
PanDDA run, TFA/DMSO background map: 1-BDC: 0.07
PanDDA run, TFA/DMSO background map: Hit: TRUE

CC1CCN(c2ncnc3[nH]ccc23)C1CO (stereo not drawn) [AVI-3655]
1-BDC: 0.21
Pandda run, overall: Hit: TRUE
Pandda run, overall: Modeled: TRUE
PanDDA run, DMSO background map: 1-BDC: 0.21
PanDDA run, DMSO background map: Hit: TRUE
Total number of conformations: 1
2*(1-BDC) (%) [1]: 42%
X-ray crystallography: Binding site: Adenosine

CO[C@@H]1C[C@H](CO)N(c2ncnc3[nH]ccc23)C1 [AVI-3656]
1-BDC: 0.26
Pandda run, overall: Hit: TRUE
Pandda run, overall: Modeled: TRUE
PanDDA run, DMSO background map: 1-BDC: 0.26
PanDDA run, DMSO background map: Hit: TRUE
Total number of conformations: 1
2*(1-BDC) (%) [1]: 52%
X-ray crystallography: Binding site: Adenosine

Cn1cc(CC(CO)Nc2ncnc3[nH]ccc23)cn1 (stereo not drawn) [AVI-3657]
1-BDC: 0.15
X-ray crystal structure [2]: TRUE
Pandda run, overall: Hit: TRUE
Pandda run, overall: Modeled: TRUE
PanDDA run, DMSO background map: 1-BDC: 0.15
PanDDA run, DMSO background map: Hit: TRUE
Total number of conformations: 1
2*(1-BDC) (%) [1]: 30%
Binding site [3]: Adenosine

OCC(CC1OCCO1)Nc1ncnc2[nH]ccc12 (stereo not drawn) [AVI-3658]
1-BDC: 0.2
X-ray crystal structure [2]: TRUE
Pandda run, overall: Hit: TRUE
Pandda run, overall: Modeled: TRUE
PanDDA run, DMSO background map: 1-BDC: 0.2
PanDDA run, DMSO background map: Hit: TRUE
Total number of conformations: 1
2*(1-BDC) (%) [1]: 40%
Binding site [3]: Adenosine

OCC(Nc1ncnc2[nH]ccc12)c1ccco1 (stereo not drawn) [AVI-3659]
1-BDC: 0.16
X-ray crystal structure [2]: TRUE
Pandda run, overall: Hit: TRUE
Pandda run, overall: Modeled: TRUE
PanDDA run, DMSO background map: 1-BDC: 0.16
PanDDA run, DMSO background map: Hit: TRUE
Total number of conformations: 1
2*(1-BDC) (%) [1]: 32%
Binding site [3]: Adenosine

OCC(CC1CCCO1)Nc1ncnc2[nH]ccc12 (stereo not drawn) [AVI-3660]
1-BDC: 0.23
X-ray crystal structure [2]: TRUE
Pandda run, overall: Hit: TRUE
Pandda run, overall: Modeled: TRUE
PanDDA run, DMSO background map: 1-BDC: 0.23
PanDDA run, DMSO background map: Hit: TRUE
Total number of conformations: 1
2*(1-BDC) (%) [1]: 46%
Binding site [3]: Adenosine

OC1CCN(c2ncnc3[nH]ccc23)C1 (stereo not drawn) [AVI-3661]
Occupancy difference (refined_occupancy - 2*(1-BDC)): 10
Refined ligand occupancy (%): 40%
1-BDC: 0.15
Pandda run, overall: Hit: TRUE
Pandda run, overall: Modeled: TRUE
PanDDA run, DMSO background map: 1-BDC: 0.15
PanDDA run, DMSO background map: Hit: TRUE
Total number of conformations: 1
2*(1-BDC) (%) (occupancy estimate from PanDDA BDC): 30%
Refined TFA occupancy (%) (occupancy of TFA in the dataset of the named ligand): 20%
X-ray crystallography: Binding site: Adenosine

OCC(CC1CC1)Nc1ncnc2[nH]ccc12 (stereo not drawn) [AVI-3662]
1-BDC: 0.14
X-ray crystal structure [2]: TRUE
Pandda run, overall: Hit: TRUE
Pandda run, overall: Modeled: TRUE
Pandda run, overall: Modeling comment: Distal site, weak density, not modeled
PanDDA run, DMSO background map: 1-BDC: 0.14
PanDDA run, DMSO background map: Hit: TRUE
Total number of conformations: 1
2*(1-BDC) (%) [1]: 28%
Binding site [3]: Adenosine

OCC(CC1CCOC1)Nc1ncnc2[nH]ccc12 (stereo not drawn) [AVI-3665]
1-BDC: 0.17
X-ray crystal structure [2]: TRUE
Pandda run, overall: Hit: TRUE
Pandda run, overall: Modeled: TRUE
PanDDA run, DMSO background map: 1-BDC: 0.17
PanDDA run, DMSO background map: Hit: TRUE
Total number of conformations: 1
2*(1-BDC) (%) [1]: 34%
Binding site [3]: Adenosine

CCC(Nc1ncnc2[nH]ccc12)C(C)(C)O (stereo not drawn) [AVI-3667]
1-BDC: 0.14
X-ray crystal structure [2]: TRUE
Pandda run, overall: Hit: TRUE
Pandda run, overall: Modeled: TRUE
PanDDA run, DMSO background map: 1-BDC: 0.14
PanDDA run, DMSO background map: Hit: TRUE
Total number of conformations: 1
2*(1-BDC) (%) [1]: 28%
Binding site [3]: Adenosine

CC(C)CCC(CO)Nc1ncnc2[nH]ccc12.O=C(O)C(F)(F)F (stereo not drawn) [AVI-3668]
Pandda run, overall: Hit: TRUE
Pandda run, overall: Modeling comment: Weak density, not modeled
PanDDA run, DMSO background map: 1-BDC: 0.15
PanDDA run, DMSO background map: Hit: TRUE
PanDDA run, TFA/DMSO background map: 1-BDC: 0.09
PanDDA run, TFA/DMSO background map: Hit: TRUE

OCC(Cc1nccs1)Nc1ncnc2[nH]ccc12 (stereo not drawn) [AVI-3673]
1-BDC: 0.19
X-ray crystal structure [2]: TRUE
Pandda run, overall: Hit: TRUE
Pandda run, overall: Modeled: TRUE
PanDDA run, DMSO background map: 1-BDC: 0.19
PanDDA run, DMSO background map: Hit: TRUE
Total number of conformations: 1
2*(1-BDC) (%) [1]: 38%
Binding site [3]: Adenosine

Cc1ccccc1CC(CO)Nc1ncnc2[nH]ccc12 (stereo not drawn) [AVI-3674]
1-BDC: 0.19
X-ray crystal structure [2]: TRUE
Pandda run, overall: Hit: TRUE
Pandda run, overall: Modeled: TRUE
PanDDA run, DMSO background map: 1-BDC: 0.19
PanDDA run, DMSO background map: Hit: TRUE
Total number of conformations: 1
2*(1-BDC) (%) [1]: 38%
Binding site [3]: Adenosine

O=C(O)C(F)(F)F.OCC(CC1CCOCC1)Nc1ncnc2[nH]ccc12 (stereo not drawn) [AVI-3676]
Pandda run, overall: Modeling comment: TFA only

OCC(Nc1ncnc2[nH]ccc12)C1CCOC1 (stereo not drawn) [AVI-3679]
1-BDC: 0.16
X-ray crystal structure [2]: TRUE
Pandda run, overall: Hit: TRUE
Pandda run, overall: Modeled: TRUE
PanDDA run, DMSO background map: 1-BDC: 0.16
PanDDA run, DMSO background map: Hit: TRUE
Total number of conformations: 1
2*(1-BDC) (%) [1]: 32%
Binding site [3]: Adenosine

O=C(O)C(F)(F)F.OCC12CC(CN1c1ncnc3[nH]ccc13)C2 [AVI-3681]
1-BDC: 0.22
Pandda run, overall: Hit: TRUE
Pandda run, overall: Modeled: TRUE
Pandda run, overall: Modeling comment: Distal site, weak density, not modeled
PanDDA run, DMSO background map: 1-BDC: 0.22
PanDDA run, DMSO background map: Hit: TRUE
Total number of conformations: 1
2*(1-BDC) (%) [1]: 44%
X-ray crystallography: Binding site: Adenosine

Cc1ccc(CC(CO)Nc2ncnc3[nH]ccc23)cc1 (stereo not drawn) [AVI-3683]
1-BDC: 0.15
X-ray crystal structure [2]: TRUE
Pandda run, overall: Hit: TRUE
Pandda run, overall: Modeled: TRUE
PanDDA run, DMSO background map: 1-BDC: 0.15
PanDDA run, DMSO background map: Hit: TRUE
Total number of conformations: 2
2*(1-BDC) (%) [1]: 30%
Binding site [3]: Adenosine

Cc1ccc(CC(CO)Nc2ncnc3[nH]ccc23)cc1C (stereo not drawn) [AVI-3684]
1-BDC: 0.15
X-ray crystal structure [2]: TRUE
Pandda run, overall: Hit: TRUE
Pandda run, overall: Modeled: TRUE
PanDDA run, DMSO background map: 1-BDC: 0.15
PanDDA run, DMSO background map: Hit: TRUE
Total number of conformations: 2
2*(1-BDC) (%) [1]: 30%
Binding site [3]: Adenosine

OCC1CCCN1c1ncnc2[nH]ccc12 (stereo not drawn) [AVI-3685]
1-BDC: 0.25
Pandda run, overall: Hit: TRUE
Pandda run, overall: Modeled: TRUE
PanDDA run, DMSO background map: 1-BDC: 0.25
PanDDA run, DMSO background map: Hit: TRUE
Total number of conformations: 1
2*(1-BDC) (%) [1]: 50%
X-ray crystallography: Binding site: Adenosine

OCC(Cc1ccc(I)cc1)Nc1ncnc2[nH]ccc12 (stereo not drawn) [AVI-3686]
1-BDC: 0.2
X-ray crystal structure [2]: TRUE
Pandda run, overall: Hit: TRUE
Pandda run, overall: Modeled: TRUE
PanDDA run, DMSO background map: 1-BDC: 0.2
PanDDA run, DMSO background map: Hit: TRUE
Total number of conformations: 2
2*(1-BDC) (%) [1]: 40%
Binding site [3]: Adenosine
